According to patent US12509444B2, “Compounds and methods for CD73 modulation and indications therefor” (Plexxikon Inc., priority 2019, dated 2025):

What was measured:
human CD73 = molecular target: T1, human CD73 (Homo sapiens, UniProt P21589); test: Inhibitor activity against CD73 in cell based assay (CD73 expressing CHO-K1 cells); details: CHO-K1 cells expressing human CD73, 150 μM AMP, 4 hours of incubation; read-out: CHO-K1 CELL VARIANT: CD73 IC50
T1 construct: expressed in transfected cells
T1 sequence (P21589 27-549): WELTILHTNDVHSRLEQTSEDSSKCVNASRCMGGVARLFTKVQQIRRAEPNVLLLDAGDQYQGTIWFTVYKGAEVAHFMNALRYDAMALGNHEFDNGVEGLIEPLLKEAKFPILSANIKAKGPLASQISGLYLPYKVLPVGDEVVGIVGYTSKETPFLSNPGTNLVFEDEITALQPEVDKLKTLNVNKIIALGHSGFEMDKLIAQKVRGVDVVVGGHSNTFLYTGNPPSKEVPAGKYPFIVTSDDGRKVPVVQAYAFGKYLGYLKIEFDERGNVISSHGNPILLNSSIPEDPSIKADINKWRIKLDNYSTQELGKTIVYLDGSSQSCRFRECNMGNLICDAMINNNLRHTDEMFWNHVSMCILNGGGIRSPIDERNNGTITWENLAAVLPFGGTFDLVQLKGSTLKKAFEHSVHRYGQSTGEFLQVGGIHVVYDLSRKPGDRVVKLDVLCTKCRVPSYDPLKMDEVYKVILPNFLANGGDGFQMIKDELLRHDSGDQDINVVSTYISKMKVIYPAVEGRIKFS
Summary of the method: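 Residual supernatant AMP was quantified via CellTiter-Glo luminescence (1 μM ATP added, 30 min, room temperature) after a 4 h exposure of human CD73-expressing CHO-K1 cells to 150 μM AMP plus compound, top final 10 μM, 8 points. IC50 came from nonlinear regression of percent inhibition.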

[1] = molecular target: T2, Human CD73 (amino acid residues 27-549) (Homo sapiens, UniProt P21589); test: CD73 enzymatic assay (luciferase-based indirect assay, CellTiter-Glo); assay type: biochemical; details: 0.4 nM CD73, 150 μM AMP, 1 hour at room temperature
T2 construct: Human CD73 (amino acid residues 27-549); His tag (N); made in house; host or cells: E. coli
T2 sequence (P21589 27-549): T1 sequence (P21589 27-549)
Summary of the method: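 Residual AMP inhibits luciferase, so luminescence reports CD73 turnover; read with CellTiter-Glo 2.0 plus 1 μM final ATP, 30 min. Reaction used 0.4 nM N-His CD73 (27-549, E. coli), 150 μM AMP, HEPES pH 7.4 with Tween 20, 1 h at room temperature. IC50 fitted by nonlinear regression.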

Row | SMILES | IC50 (human CD73) | IC50 [1]
1 | O=C(CO)N[C@H]1CC[C@H](NC(=O)O[C@@H]2CCN(c3cn[nH]c(=O)c3Cl)C2)CC1 [P-0164, (R)-1-(5-chloro-6-oxo-1,6-dihydropyridazin-4-yl)pyrrolidin-3-yl ((1r,4R)-4-(2-hydroxyacetamido)cyclohexyl) carbamate] | 0.001 to 10 µM | 0.001 to 10 µM
2 | CC(=O)N[C@H]1CC[C@H](NC(=O)O[C@@H]2CCN(c3cn[nH]c(=O)c3Cl)C2)CC1 [P-0165, (R)-1-(5-chloro-6-oxo-1,6-dihydropyridazin-4-yl)pyrrolidin-3-yl ((1r,4R)-4-acetamidocyclohexyl)carbamate] | 0.001 to 10 µM | 0.001 to 10 µM
3 | N#Cc1c(N2CC[C@@H](OC(=O)NC3CCNCC3)C2)cn[nH]c1=O [P-0166, (R)-1-(5-cyano-6-oxo-1,6-dihydropyridazin-4-yl)pyrrolidin-3-yl piperidin-4-ylcarbamate] | 0.001 to 10 µM | 0.001 to 10 µM
4 | N[C@H]1C[C@H](NC(=O)O[C@@H]2CCN(c3cn[nH]c(=O)c3Cl)C2)C1 [P-0167, (R)-1-(5-chloro-6-oxo-1,6-dihydropyridazin-4-yl)pyrrolidin-3-yl ((1r,3R)-3-aminocyclobutyl)carbamate] | 0.001 to 10 µM | 0.001 to 10 µM
5 | O=C(Nc1ccc(F)cc1)N[C@H]1C[C@H](NC(=O)O[C@@H]2CCN(c3cn[nH]c(=O)c3Cl)C2)C1 [P-0168, (R)-1-(5-chloro-6-oxo-1,6-dihydropyridazin-4-yl)pyrrolidin-3-yl ((1r,3R)-3-(3-(4-fluorophenyl)ureido)cyclobutyl) carbamate] | 0.001 to 10 µM | 0.001 to 10 µM
6 | CCOC(=O)N[C@H]1C[C@H](NC(=O)O[C@@H]2CCN(c3cn[nH]c(=O)c3Cl)C2)C1 [P-0169, (R)-1-(5-chloro-6-oxo-1,6-dihydropyridazin-4-yl)pyrrolidin-3-yl ethyl ((1R,3r)-cyclobutane-1,3-diyl)dicarbamate] | 0.001 to 10 µM | 0.001 to 10 µM
7 | CS(=O)(=O)N[C@H]1C[C@H](NC(=O)O[C@@H]2CCN(c3cn[nH]c(=O)c3Cl)C2)C1 [P-0170, (R)-1-(5-chloro-6-oxo-1,6-dihydropyridazin-4-yl)pyrrolidin-3-yl ((1r,3R)-3-(methylsulfonamido)cyclobutyl)carbamate] | 0.001 to 10 µM | 0.001 to 10 µM
8 | O=C(N[C@H]1C[C@H](NS(=O)(=O)c2ccccc2)C1)O[C@@H]1CCN(c2cn[nH]c(=O)c2Cl)C1 [P-0171, (R)-1-(5-chloro-6-oxo-1,6-dihydropyridazin-4-yl)pyrrolidin-3-yl ((1r,3R)-3-(phenylsulfonamido)cyclobutyl) carbamate] | 0.001 to 10 µM | 0.001 to 10 µM
9 | O=CN[C@H]1C[C@H](NC(=O)O[C@@H]2CCN(c3cn[nH]c(=O)c3Cl)C2)C1 [P-0172, (R)-1-(5-chloro-6-oxo-1,6-dihydropyridazin-4-yl)pyrrolidin-3-yl ((1r,3R)-3-formamidocyclobutyl) carbamate] | 0.001 to 10 µM | 0.001 to 10 µM
10 | O=C(NC1CCCC1)N[C@H]1CC[C@H](NC(=O)O[C@@H]2CCN(c3cn[nH]c(=O)c3Cl)C2)CC1 [P-0173, (R)-1-(5-chloro-6-oxo-1,6-dihydropyridazin-4-yl)pyrrolidin-3-yl ((1r,4R)-4-(3-cyclopentylureido)cyclohexyl) carbamate] | 0.001 to 10 µM | 0.001 to 10 µM
11 | O=C(NC1CCCCC1)N[C@H]1CC[C@H](NC(=O)O[C@@H]2CCN(c3cn[nH]c(=O)c3Cl)C2)CC1 [P-0174, (R)-1-(5-chloro-6-oxo-1,6-dihydropyridazin-4-yl)pyrrolidin-3-yl ((1r,4R)-4-(3-cyclohexylureido)cyclohexyl) carbamate] | 0.001 to 10 µM | 0.001 to 10 µM
12 | O=C(N[C@H]1CC[C@H](NS(=O)(=O)c2ccc(F)cc2)CC1)O[C@@H]1CCN(c2cn[nH]c(=O)c2Cl)C1 [P-0175, (R)-1-(5-chloro-6-oxo-1,6-dihydropyridazin-4-yl)pyrrolidin-3-yl ((1r,4R)-4-((4-fluorophenyl)sulfonamido)cyclohexyl)carbamate] | 0.001 to 10 µM | 0.001 to 10 µM
13 | O=C(N[C@H]1CC[C@H](NS(=O)(=O)c2ccccc2F)CC1)O[C@@H]1CCN(c2cn[nH]c(=O)c2Cl)C1 [P-0176, (R)-1-(5-chloro-6-oxo-1,6-dihydropyridazin-4-yl)pyrrolidin-3-yl ((1r,4R)-4-((2-fluorophenyl)sulfonamido)cyclohexyl)carbamate] | 0.001 to 10 µM | 0.001 to 10 µM
14 | O=C(NCC1(CCl)CC(NC(=O)O[C@@H]2CCN(c3cn[nH]c(=O)c3Cl)C2)C1)Nc1ccc(F)cc1 (stereo partly drawn) [P-0177, (R)-1-(5-chloro-6-oxo-1,6-dihydropyridazin-4-yl)pyrrolidin-3-yl (3-(chloromethyl)-3-((3-(4-fluorophenyl)ureido)methyl)cyclobutyl)carbamate] | 0.001 to 10 µM | 0.001 to 10 µM
15 | O=C(Nc1ccc(F)cc1)N[C@H]1CC[C@H](NC(=O)O[C@@H]2CCN(c3cn[nH]c(=O)c3Cl)C2)CC1 [P-0178, (R)-1-(5-chloro-6-oxo-1,6-dihydropyridazin-4-yl)pyrrolidin-3-yl ((1r,4R)-4-(3-(4-fluorophenyl)ureido)cyclohexyl)carbamate] | 0.001 to 10 µM | 0.001 to 10 µM
16 | COC(=O)[C@H]1CC[C@@H](NC(=O)O[C@@H]2CCN(c3cn[nH]c(=O)c3Cl)C2)CC1 [P-0179, methyl (1S,4s)-4-(((((R)-1-(5-chloro-6-oxo-1,6-dihydropyridazin-4-yl)pyrrolidin-3-yl)oxy)carbonyl)amino) cyclohexane-1-carboxylate] | 0.001 to 10 µM | 0.001 to 10 µM
17 | O=C(N[C@H]1CC[C@@H](C(=O)O)CC1)O[C@@H]1CCN(c2cn[nH]c(=O)c2Cl)C1 [P-0180, (1S,4s)-4-(((((R)-1-(5-chloro-6-oxo-1,6-dihydropyridazin-4-yl)pyrrolidin-3-yl)oxy)carbonyl)amino) cyclohexane-1-carboxylic acid] | 10 to 100 µM | 0.001 to 10 µM
18 | NC(=O)[C@H]1CC[C@@H](NC(=O)O[C@@H]2CCN(c3cn[nH]c(=O)c3Cl)C2)CC1 [P-0181, (R)-1-(5-chloro-6-oxo-1,6-dihydropyridazin-4-yl)pyrrolidin-3-yl ((1s,4S)-4-carbamoylcyclohexyl) carbamate] | 0.001 to 10 µM | 0.001 to 10 µM
19 | CCCNC(=O)[C@H]1CC[C@@H](NC(=O)O[C@@H]2CCN(c3cn[nH]c(=O)c3Cl)C2)CC1 [P-0182, (R)-1-(5-chloro-6-oxo-1,6-dihydropyridazin-4-yl)pyrrolidin-3-yl ((1s,4S)-4-(propylcarbamoyl)cyclohexyl) carbamate] | 0.001 to 10 µM | 0.001 to 10 µM
20 | O=C(N[C@H]1CC[C@@H](C(=O)Nc2ccccc2)CC1)O[C@@H]1CCN(c2cn[nH]c(=O)c2Cl)C1 [P-0183, (R)-1-(5-chloro-6-oxo-1,6-dihydropyridazin-4-yl)pyrrolidin-3-yl ((1s,4S)-4-(phenylcarbamoyl)cyclohexyl) carbamate] | 0.001 to 10 µM | 0.001 to 10 µM
21 | O=C(N[C@H]1CC[C@H](NC(=O)c2ccccc2)CC1)O[C@@H]1CCN(c2cn[nH]c(=O)c2Cl)C1 [P-0184, (R)-1-(5-chloro-6-oxo-1,6-dihydropyridazin-4-yl)pyrrolidin-3-yl ((1r,4R)-4-benzamidocyclohexyl) carbamate] | 0.001 to 10 µM | 0.001 to 10 µM
